In one assay the target is T1, recombinant mGluR1 (Homo sapiens, UniProt Q13255).
T1 construct: expressed in transfected cells
The experiment in a line: Assay of Group I receptor antagonist activity (FLIPR [Ca2+]i mobilization; secondary IP3 turnover) in cells expressing mGluR1. The assay is classed as cell-based. As to the method:
(§1) For FLIPR analysis, cells expressing human mGluR5d or recombinant mGluR1 as described in WO97/05252 were seeded on collagen coated clear bottom 96-well plates with black sides and analysis of [Ca^2+]i mobilization was done 24 h after seeding. FLIPR experiments were done using a laser setting of 0.800 W and a 0.4 second CCD camera shutter speed. Each FLIPR experiment was initiated with 160 μl of buffer present in each well of the cell plate. After each addition of the compound, the fluorescence signal was sampled 50 times at 1 second intervals followed by 3 samples at 5 second intervals. Responses were measured as the peak height of the response within the sample period. EC50 and IC50 determinations were made from data obtained from 8-point concentration response curves (CRC) performed in duplicate. Agonist CRC were generated by scaling all responses to the maximal response observed for the plate. […]
(§2) We have validated a secondary functional assay for mGluR5d or recombinant mGluR1 as described in WO97/05252 based on Inositol Phosphate (IP3) turnover. IP3 accumulation is measured as an index of receptor mediated phospholipase C turnover. […] Antagonist activity was determined by pre-incubating test compounds for 15 min, then incubating in the presence of glutamate (80 μM) or DHPG (30 μM) for 30 min. […]

For another assay, the target named is T2, human mGluR5d (Homo sapiens, UniProt P41594).
T2 construct: expressed in transfected cells
T2 sequence (P41594 21-942 isoform P41594-3 limits assumed): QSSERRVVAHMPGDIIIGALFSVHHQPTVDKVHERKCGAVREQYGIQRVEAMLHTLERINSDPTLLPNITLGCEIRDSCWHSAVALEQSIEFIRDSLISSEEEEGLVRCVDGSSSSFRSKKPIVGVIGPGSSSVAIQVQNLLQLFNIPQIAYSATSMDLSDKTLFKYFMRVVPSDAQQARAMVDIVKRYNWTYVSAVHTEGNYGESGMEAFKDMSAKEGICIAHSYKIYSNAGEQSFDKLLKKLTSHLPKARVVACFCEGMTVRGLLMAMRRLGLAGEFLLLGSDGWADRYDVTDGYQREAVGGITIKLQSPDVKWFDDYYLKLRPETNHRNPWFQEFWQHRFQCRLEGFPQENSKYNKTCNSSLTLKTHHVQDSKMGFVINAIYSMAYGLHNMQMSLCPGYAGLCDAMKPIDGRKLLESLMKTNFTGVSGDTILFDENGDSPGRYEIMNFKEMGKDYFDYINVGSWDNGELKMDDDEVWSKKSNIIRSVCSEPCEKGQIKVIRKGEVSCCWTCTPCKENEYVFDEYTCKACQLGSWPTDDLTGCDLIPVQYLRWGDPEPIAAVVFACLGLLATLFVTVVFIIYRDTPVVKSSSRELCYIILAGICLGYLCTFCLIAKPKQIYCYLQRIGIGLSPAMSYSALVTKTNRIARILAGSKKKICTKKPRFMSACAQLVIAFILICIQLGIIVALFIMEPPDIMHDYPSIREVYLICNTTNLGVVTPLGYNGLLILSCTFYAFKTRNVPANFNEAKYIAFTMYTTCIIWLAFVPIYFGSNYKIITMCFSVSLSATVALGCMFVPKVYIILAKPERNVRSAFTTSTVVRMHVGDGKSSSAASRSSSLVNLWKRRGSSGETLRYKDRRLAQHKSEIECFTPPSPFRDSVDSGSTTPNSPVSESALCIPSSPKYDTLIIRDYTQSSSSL
Description: Assay of Group I receptor antagonist activity (FLIPR [Ca2+]i mobilization; secondary IP3 turnover) in cells expressing mGluR5d. The assay is classed as cell-based. The settings on record: read-out: mGluR5 IC50. How it is done: as §1, §2

T1 sequence (Q13255 19-1194): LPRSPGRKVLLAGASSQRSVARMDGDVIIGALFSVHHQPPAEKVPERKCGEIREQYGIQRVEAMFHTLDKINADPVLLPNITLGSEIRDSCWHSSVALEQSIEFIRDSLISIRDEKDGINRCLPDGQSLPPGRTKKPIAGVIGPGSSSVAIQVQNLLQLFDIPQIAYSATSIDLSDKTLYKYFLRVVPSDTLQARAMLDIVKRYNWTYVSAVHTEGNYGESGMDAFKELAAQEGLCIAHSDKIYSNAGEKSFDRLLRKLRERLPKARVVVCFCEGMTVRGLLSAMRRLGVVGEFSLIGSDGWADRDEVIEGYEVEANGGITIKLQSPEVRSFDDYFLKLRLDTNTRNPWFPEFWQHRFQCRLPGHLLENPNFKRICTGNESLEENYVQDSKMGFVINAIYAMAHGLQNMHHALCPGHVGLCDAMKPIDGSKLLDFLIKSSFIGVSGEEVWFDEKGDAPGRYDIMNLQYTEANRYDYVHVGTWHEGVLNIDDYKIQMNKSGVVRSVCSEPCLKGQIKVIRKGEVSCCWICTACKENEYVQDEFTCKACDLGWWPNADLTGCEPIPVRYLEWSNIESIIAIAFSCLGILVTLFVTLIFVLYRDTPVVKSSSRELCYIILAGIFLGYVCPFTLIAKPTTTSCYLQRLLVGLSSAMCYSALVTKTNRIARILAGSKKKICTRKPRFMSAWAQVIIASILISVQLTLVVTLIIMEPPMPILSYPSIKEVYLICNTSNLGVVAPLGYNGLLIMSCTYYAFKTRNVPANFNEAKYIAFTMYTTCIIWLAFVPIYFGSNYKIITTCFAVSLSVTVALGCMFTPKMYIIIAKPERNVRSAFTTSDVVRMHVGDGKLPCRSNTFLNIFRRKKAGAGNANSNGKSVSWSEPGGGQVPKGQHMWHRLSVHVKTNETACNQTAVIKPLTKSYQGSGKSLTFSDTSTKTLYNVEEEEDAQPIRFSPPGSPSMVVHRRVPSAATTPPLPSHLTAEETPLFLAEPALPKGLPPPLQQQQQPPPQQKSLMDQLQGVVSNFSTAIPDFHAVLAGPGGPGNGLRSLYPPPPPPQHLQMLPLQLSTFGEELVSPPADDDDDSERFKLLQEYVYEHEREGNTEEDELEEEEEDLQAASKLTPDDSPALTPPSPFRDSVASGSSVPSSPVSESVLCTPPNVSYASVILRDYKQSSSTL

On to `CC1CCc2nc(C(=O)N[C@H]3CC[C@H](C)CC3)cnc2C1` (relative stereo) [6-methyl-N-(trans-4-methylcyclohexyl)-5,6,7,8-tetrahydroquinoxaline-2-carboxamide], for which the values for the half-inhibitory concentration (IC50) at recombinant mGluR1 and at human mGluR5d were 0.052 µM and 7.29 µM, respectively.
